# Test results from US9028831B2, “Markers for selecting personalized therapies for the treatment of cancer” (Fundació Institut de Recerca Hospital Universitari Vall …, priority 2009, dated 2015).
# Entries after “also recorded” stand apart in the source; their conditions may differ. Read-outs that look alike come from different tables or passages of the source.
# Tests used:
# [1] = tested on: metastatic colorectal cancer; assay: Response, time to progression and survival of patients receiving irinotecan-based chemotherapy, by tumor aprataxin level; assay type: in vivo, human; conditions: for time to progression (TTP) median: irinotecan-based treatment
# Description: A total of 135 patients with metastatic colorectal cancer receiving irinotecan-based chemotherapy in Hospital Universitario Vall d'Hebron were included in the study. The response to the chemotherapeutic treatment was evaluated by means of computerized axial tomography (CAT) and a response was considered complete when the complete disappearance of metastatic lesions was observed. […] A lesion size reduction observed by CAT greater than 30% or an increase above 20% were considered as partial response or progressive disease, respectively. The study was conducted according to the research protocols approved by the Clinical Research Ethics Committee.
# After the histological examination of tumor sample sections stained with hematoxylin and eosin and fixed with formalin embedded in paraffin, areas containing a large proportion of tumor cells were selected from the 135 patients. Cores of 1.2 mm of tumor samples from each patient were arranged in duplicate in a new paraffin block using an apparatus for preparing tissue matrices from Beecher Instruments (Beecher Instruments, Silver Spring, Md.).
# 4 μm unstained sections of the tissue microarrays were mounted on slides coated with 3-aminopropyl-triethoxy-silane (Sigma, St. Louis, Mo., USA). The sections were deparaffinized in xylene and rehydrated by means of a gradual series of alcohol and distilled water. The antigen was recovered with preheated 10 mM pH=6 citrate buffer for 20 minutes at 95° C. For the immunohistochemical analysis, the commercial Novolink polymer detection system was used according to the manufacturer's instructions (Novocastra Laboratories; Newcastle, UK). A rabbit anti-aprataxin polyclonal antibody made against the C-terminus end of human aprataxin was used at a dilution 1:100 (4° C. overnight; Aviva Systems Biology Corp.; San Diego, Calif.). The staining was viewed using a solution of 3,3′-diaminobenzidine (DAB) and the sections were counter stained in Mayer's hematoxylin, washed in water, dehydrated through a series of ethanol solution, clarified in xylene and mounted. The aprataxin levels were evaluated without knowing the clinical data. A semi-quantitative scale from 0 to 3 was used to measure the staining intensity. The absence of aprataxin staining was graded as 0 and the low, moderate and high aprataxin levels were graded as 1, 2, and 3, respectively (see FIG. 2A-D). The mean grading of samples in duplicate was used in subsequent analysis.
# Survival curves were plotted using Kaplan and Meier method and the survival differences were evaluated using log-rank test. Cox's proportional hazard model was used to evaluate the simultaneous contribution of the following covariables in the overall survival: sex, age, histological grade, and tumor aprataxin levels. Fisher's exact test, Chi-squared test and Mann-Whitney test were used to evaluate the differences between clinicopathological parameters in patients with high and low aprataxin levels (see Table 1). It was considered that the p values of less than 0.05 indicated statistic significant.
# parental cells DT40 = assay: Camptothecin-induced apoptosis (subdiploid DNA content, propidium iodide FACS) in parental DT40 cells; assay type: cell-based, Chicken; conditions: 15-25 nM, 72 hours
# Description: (§1) Chicken parental B cell line DT40, a sub-line where ATPX was interrupted by means of homologous recombination and a derivative line where APTX was re-introduced in the knock-out cells were used (Abel I, et al., Nature 2006; 443: 713-6). Camptothecin-induced apoptosis was evaluated as has been previously described (Arango D, et al., Cancer Res 2001; 61: 4910-5; Arango D, et al., Br J Cancer 2003; 89: 1757-65). Briefly, 2.5×10^5 cells were seeded by triplicate in 6-well Falcon plates (Becton Dickinson) and were left to adhere for 24 hours before sucking out the medium and changing it with fresh medium containing 0, 15 or 25 nM camptothecin (Calbiochem, San Diego, Calif.). After 72 hours of treatment, both the adhered cells and those that floated were collected, they were washed two times with 2 ml of PBS, and resuspended in PBS containing 50 μg/ml propidium iodide, 0.1% sodium citrate, and 0.1% Triton X-100. The cells were stained overnight at 4° C. and the DNA content was analyzed using a cell separator (FACSCalibur; Becton Dickinson). The cell debris were discarded, and the proportion of cells with subdiploid DNA content typical of apoptotic cells was quantified using WinList 2.0 (Verity Software House, Inc.). All the experiments were carried out in triplicate, and the mean from three independent experiments is shown.
# [2] = tested on: APTX knock-out cells DT40; assay: Camptothecin-induced apoptosis in DT40 sub-line with APTX inactivated by homologous recombination; assay type: cell-based, Chicken; conditions: 15-25 nM, 72 hours, p<0.004
# Description: as §1
# [3] = tested on: DT40 knock-out cells with APTX re-introduced; assay: Camptothecin-induced apoptosis in DT40 knock-out cells with APTX re-introduced; assay type: cell-based, Chicken; conditions: APTX knock-out DT40 cells with APTX reintroduced, 15-25 nM, 72 hours
# Description: as §1
smiles,measurement,setting,value
CCc1c2c(nc3ccc(OC(=O)N4CCC(N5CCCCC5)CC4)cc13)-c1cc3c(c(=O)n1C2)COC(=O)[C@]3(O)CC [irinotecan],Overall survival median,[1],19 months
same,Overall survival median,[1]; Low aprataxin patients,36.7 months
same,Overall survival median,[1]; Total patients,26.3 months
same,"hazard ratio, overall survival","[1]; high vs absent/low aprataxin, 95% CI 1.21-3.63, log-rank p=0.008",2.1
same,"hazard ratio, time to progression","[1]; moderate/high vs absent/low aprataxin, 95% CI 1.04-2.29, log-rank p=0.03",1.5
same,time to progression (TTP) median,[1]; patients with absence or low aprataxin levels,9.2 months
same,time to progression (TTP) median,[1]; patients with moderate or high tumor aprataxin levels,5.5 months
"CC[C@@]1(O)C(=O)OCc2c1cc1n(c2=O)Cc2cc3ccccc3nc2-1 [CPT, camptothecin]",apoptosis induction,parental cells DT40,modest apoptosis induction
same,apoptosis induction / sensitization to CPT,[2],significantly sensitized; also recorded: significantly increased apoptosis induction
same,CPT resistant phenotype after reintroduction of APTX,[3],completely reestablished the CPT resistant phenotype; also recorded: fully reestablished the resistant phenotype
